From article PMC5152921, “Evolutionary and Functional Diversification of the Vitamin D Receptor-Lithocholic Acid Partnership” (PLoS ONE, 2016) come the findings set out here.

Broadly, the Ki is a measure of affinity in units of concentration, obtained from inhibition or displacement. A low value points to a stronger hold on the target.

Assay [1] concerns the target T1, Zebrafish VDRα (Danio rerio, UniProt Q9PTN2).
T1 construct: 89.7 ng/well of full-length pSG5-VDR was co-transfected; expressed in transfected cells; host or cells: COS7
T1 sequence (Q9PTN2 1-453): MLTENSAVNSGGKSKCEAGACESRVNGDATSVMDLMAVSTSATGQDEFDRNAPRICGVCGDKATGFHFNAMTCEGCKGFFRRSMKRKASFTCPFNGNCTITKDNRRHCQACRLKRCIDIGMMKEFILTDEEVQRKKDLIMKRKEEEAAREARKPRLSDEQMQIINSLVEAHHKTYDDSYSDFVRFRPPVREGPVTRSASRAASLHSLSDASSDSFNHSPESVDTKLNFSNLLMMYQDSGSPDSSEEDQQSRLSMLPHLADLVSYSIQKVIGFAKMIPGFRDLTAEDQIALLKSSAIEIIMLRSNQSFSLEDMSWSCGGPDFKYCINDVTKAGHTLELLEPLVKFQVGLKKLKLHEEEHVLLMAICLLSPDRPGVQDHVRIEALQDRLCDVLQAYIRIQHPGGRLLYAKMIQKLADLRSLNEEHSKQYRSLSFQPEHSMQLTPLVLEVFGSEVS
T1 sequence (P19793 1-462 partner): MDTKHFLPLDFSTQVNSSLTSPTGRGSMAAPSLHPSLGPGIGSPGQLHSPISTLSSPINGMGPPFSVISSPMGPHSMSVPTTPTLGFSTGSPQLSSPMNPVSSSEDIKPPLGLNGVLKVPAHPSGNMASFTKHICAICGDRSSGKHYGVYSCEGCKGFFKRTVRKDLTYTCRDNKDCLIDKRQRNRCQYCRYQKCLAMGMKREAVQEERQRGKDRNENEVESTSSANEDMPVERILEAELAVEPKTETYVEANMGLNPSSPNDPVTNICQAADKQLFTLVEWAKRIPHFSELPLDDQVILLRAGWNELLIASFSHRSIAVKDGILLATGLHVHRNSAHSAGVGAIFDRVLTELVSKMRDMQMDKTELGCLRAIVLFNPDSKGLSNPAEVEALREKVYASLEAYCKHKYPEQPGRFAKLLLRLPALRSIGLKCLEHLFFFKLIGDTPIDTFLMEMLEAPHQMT
Put plainly: Competitive ligand binding assay ([3H]-1,25D3 displacement). The following applies: lysate with VDR and human RXRWT; 4 nM [3H]-1,25D3; 18 hours at 4°C; Cheng-Prusoff; mean ± SEM. As to the method: Recombinant VDR and human RXRWT lysates were prepared from transfected COS7 cells (American Type Culture Collection #CRL-1651) as described in detail previously. Lysates were diluted 10-fold in ice-cold assay buffer (10 mM Tris HCl, 150 mM KCl, 1 mM EDTA, 0.3 mM ZnCl2, 5 mM DTT, and 1x protease inhibitor cocktail (100 μM AEBSF, 80 nM aprotinin, 5 μM bestatin, 1.5 μM E-64 (for cysteine proteases), 2 μM leupeptin, 1 μM pepstatin A), pH 7.5). […] Reactions were shaken to mix and incubated for 18 hours at 4°C. Bound and free ligand were separated with the addition of 80 μL of ice-cold separation buffer (2.5% (w/v) activated charcoal, 0.5% (w/v) dextran, 100 mM Na2HPO4, 39 mM NaH2PO4, 150 mM NaCl, 15 mM NaN3, 10% gelatin, pH 7.0), and incubated at 4°C for 15 minutes with shaking every 5 minutes. Reactions were centrifuged at 5,000 x g for 5 minutes at 4°C, and 200 μL of the supernatant containing the VDR-bound ligands was removed for scintillation counting.
Total binding was determined using lysate from cells transfected with VDR, and nonspecific binding was determined using lysate from cells transfected with the empty pSG5 vector. Specific binding was determined by subtracting non-specific binding counts from the total binding counts.

Assay [2] addresses Medaka VDRα (Oryzias latipes, UniProt B2CCA0). The experiment in a line: Transient transactivation assay (XREM-Luc, HepG2). The assay is classed as cell-based. To be noted: 100 μM LCA. As to the method: (§1) HepG2 cells (American Type Culture Collection #HB-8065) were cultured in T75 flasks with vented caps (Corning Life Sciences, Corning, NY) using Minimum Essential Medium (MEM) with phenol red supplemented with 10% fetal bovine serum, 1 mM sodium pyruvate, and 1X MEM non-essential amino acids. Cells were maintained following standard protocols in a 5% CO2 incubator set at 37°C, and split when 80–90% confluent.
(§2) For the transient transactivation assays, HepG2 cells were seeded in 96-well tissue culture plates at a density of 2.5x10^4 cells per well in complete phenol red-free MEM, and allowed to recover overnight. Transfections were performed the following day using Lipofectamine 2000 (Life Technologies, Grand Island, NY) as described previously. For functional comparisons, 89.7 ng/well of full-length pSG5-VDR was co-transfected with 19.2 ng/well human XREM-Luc reporter and 4.5 ng/well of pRL-CMV as an internal luciferase control. Coregulator studies included the addition of 18.3 ng/well of human coregulators (pCDNA-RXRWT, pCDNA-RXRAF2, pSG5-SRC1, pSG5-GRIP1 or pSG5-ACTR) where indicated. […] Controls include 120 nM 1,25D3 as a positive control, and ethanol as a vehicle control. Twenty-four hours post-exposure cells were tested for luciferase activity using the Dual-Glo Luciferase Assay System (Promega Corporation, Madison, WI) according to the manufacturer’s protocols. Luciferase data were first normalized to the pRL-CMV internal luciferase control. LCA-mediated VDR transactivation (fold activation) was calculated as the ratio of the VDR luciferase response relative to the empty vector control. To calculate the impact of coregulators on VDR transactivation, VDR response in the presence of coregulators was normalized to VDR alone. All experiments were repeated 3 times and conducted as groups of 4 replicate wells. VDR response in the absence of coregulators was analyzed using a 1-way ANOVA followed by Dunnett’s multiple comparisons test. To examine the effects of different coregulators on VDR activation, data were analyzed using a 2-way ANOVA followed by Bonferroni’s multiple comparisons test in GraphPad Prism (GraphPad Inc, San Diego, CA).

The target in assay [3] is T2, Zebrafish VDRα (Danio rerio, UniProt Q9PTN2).
T2 construct: 89.7 ng/well of full-length pSG5-VDR was co-transfected; expressed in transfected cells; host or cells: HepG2
T2 sequence (Q9PTN2 1-453): T1 sequence (Q9PTN2 1-453)
The experiment in a line: Transient transactivation assay (XREM-Luc, HepG2). The following applies: 100 μM LCA. The assay is classed as cell-based. As to the method: as §1, §2

Setting [4] is: co-transfected human RXRWT, vs VDR alone.
[5] abbreviates: compared to either coregulator individually.

Sequence of Medaka VDRα (B2CCA0 entry or part of it, one chain of several): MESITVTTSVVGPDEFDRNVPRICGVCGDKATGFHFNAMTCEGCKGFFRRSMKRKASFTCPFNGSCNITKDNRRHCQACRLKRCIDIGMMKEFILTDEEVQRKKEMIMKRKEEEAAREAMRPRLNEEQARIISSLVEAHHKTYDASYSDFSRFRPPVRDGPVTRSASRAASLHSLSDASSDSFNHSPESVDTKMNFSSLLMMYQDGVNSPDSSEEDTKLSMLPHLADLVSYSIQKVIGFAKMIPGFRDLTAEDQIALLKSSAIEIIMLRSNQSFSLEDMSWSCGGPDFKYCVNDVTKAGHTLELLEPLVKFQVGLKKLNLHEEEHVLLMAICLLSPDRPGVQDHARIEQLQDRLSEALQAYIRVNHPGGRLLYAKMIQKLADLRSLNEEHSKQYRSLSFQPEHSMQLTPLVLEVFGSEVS

In the case of `C[C@H](CCC(=O)O)[C@H]1CC[C@H]2[C@@H]3CC[C@@H]4C[C@H](O)CC[C@]4(C)[C@H]3CC[C@]12C` [LCA, 5β-cholanic acid-3α-ol], the affinity in assay [1], expressed as Ki, was 5.5 ± 1.9 µM. Further, the “Effect of exogenous human RXRWT on VDR transactivation” value in assay [2] (setting [4]) and in assay [3] (setting [4]) was “significantly enhanced transactivation” throughout. For the same molecule, the “Effect of RXRWT+SRC1 or RXRWT+GRIP1 on VDR transactivation” value in assay [2] (setting [5]) and in assay [3] (setting [5]) was “significantly enhanced VDR transactivation” in each case.
